Values after ≈ are worked out from the molar mass of the structure shown.
Columns and labels:
[1] = tested on: Mycobacterium tuberculosis H37Rv; test: Anti-tuberculosis activity test in vitro (Microplate Alamar Blue Assay, MABA); format: cell-based; conditions: M. tuberculosis H37Rv, MABA, 7H9 medium, method says MIC90 was calculated, read-out: MIC
[2] = tested on: mitochondrial protein synthesis; test: Activity of inhibiting mitochondrial protein synthesis; format: biochemical; conditions: mitochondrial protein synthesis inhibition, Table 3
Procedure: The experimental steps were carried out according to the literature (Antimicrobial Agents and Chemotherapy, 2006, 50 (6), 2042-2049).

Vero cells = test: Cytotoxicity test (MTT); format: cell-based; conditions: Chlorocebus sabaeus; Vero cells, MTT, 48 hours of incubation, highest concentration 64 μg/mL; read-out: IC50

SMILES	MIC [1]	IC50 [2]	IC50 (Vero cells)	melting point
NC[C@@H]1OC(=O)N2c3cc(F)c(N4CCSCC4)cc3OC[C@@H]12 [Compound 1, (3S,3aS)-3-(Aminomethyl)-8-fluoro-7-thiomorpholino-3a, 4-dihydro-1H,3H-benzo[b]ox azolo[3,4-d][1,4]oxazin-1-one]	0.029 µg/mL (≈ 0.0854 µM)	75.51 µg/mL (≈ 222 µM)	36 µg/mL (≈ 106 µM)	155 to 157 °C
CC(C)C(=O)NC[C@@H]1OC(=O)N2c3cc(F)c(N4CCSCC4)cc3OC[C@@H]12 [Compound 5, N-(((3S,3aS)-8-Fluoro-1-oxo-7-thiomorpholino-3a,4-dihydro-1H,3H-benzo[b]oxazolo[3,4-d][1,4]oxazin-3-yl)methyl)isobutyramide]	0.095 µg/mL (≈ 0.232 µM)	>100 µg/mL	> 64 µg/mL	193 to 195 °C
O=C(NC[C@@H]1OC(=O)N2c3cc(F)c(N4CCSCC4)cc3OC[C@@H]12)C1CC1 [Compound 6, N-(((3S,3aS)-8-Fluoro-1-oxo-7-thiomorpholino-3a,4-dihydro-1H,3H-benzo[b]oxazolo[3,4-d][1,4]oxazin-3-yl)methyl)cyclopropanecarboxamide]	0.034 µg/mL (≈ 0.0834 µM)	>100 µg/mL	> 64 µg/mL	209 to 211 °C
O=C(NC[C@@H]1OC(=O)N2c3cc(F)c(N4CCSCC4)cc3OC[C@@H]12)C1CCC1 [Compound 7, N-(((3S,3aS)-8-Fluoro-1-oxo-7-thiomorpholino-3a,4-dihydro-1H,3H-benzo[b]oxazolo[3,4-d][1,4]oxazin-3-yl)methyl)cyclobutanecarboxamide]	0.03 µg/mL (≈ 0.0712 µM)	53.69 µg/mL (≈ 127 µM)	> 64 µg/mL	176 to 178 °C
COC(=O)NC[C@@H]1OC(=O)N2c3cc(F)c(N4CCSCC4)cc3OC[C@@H]12 [Compound 8, Methyl (((3S,3aS)-8-Fluoro-1-oxo-7-thiomorpholino-3a,4-dihydro-1H,3H-benzo[b]oxazolo[3,4-d][1,4]oxazin-3-yl)methyl)carbamate]	0.031 µg/mL (≈ 0.078 µM)	>100 µg/mL	> 64 µg/mL	155 to 156 °C
O=C1O[C@@H](CNc2ccon2)[C@@H]2COc3cc(N4CCSCC4)c(F)cc3N12 [Compound 9, (3S,3aS)-8-Fluoro-3-((isoxazol-3-ylamino)methyl)-7-thiomorpholino-3a,4-dihydro-1H,3H-benzo[b]oxazolo[3,4-d][1,4]oxazin-1-one]	0.025 µg/mL (≈ 0.0615 µM)	>100 µg/mL	> 64 µg/mL	148 to 150 °C
O=C(NC[C@@H]1OC(=O)N2c3cc(F)c(N4CCSCC4)cc3OC[C@@H]12)c1ccncc1 [Compound 10, N-(((3S,3aS)-8-Fluoro-1-oxo-7-thiomorpholino-3a,4-dihydro-1H,3H-benzo[b]oxazolo[3,4-d][1,4]oxazin-3-yl)methyl)isonicotinamide]	0.16 µg/mL (≈ 0.36 µM)	>100 µg/mL	> 64 µg/mL	135 to 137 °C
O=C(NC[C@@H]1OC(=O)N2c3cc(F)c(N4CCSCC4)cc3OC[C@@H]12)c1cnccn1 [Compound 11, N-(((3S,3aS)-8-Fluoro-1-oxo-7-thiomorpholino-3a,4-dihydro-1H,3H-benzo[b]oxazolo[3,4-d][1,4]oxazin-3-yl)methyl)pyrazine-2-carboxamide]	0.115 µg/mL (≈ 0.258 µM)	>100 µg/mL	40.7 µg/mL (≈ 91.3 µM)	212 to 214 °C
O=C1O[C@@H](Cn2ccnn2)[C@@H]2COc3cc(N4CCSCC4)c(F)cc3N12 [Compound 12, (3S,3aS)-3-((1H-1,2,3-Triazol-1-yl)methyl)-8-fluoro-7-thiomorpholino-3a,4-dihydro-1H,3H-benzo[b]oxazolo[3,4-d][1,4]oxazin-1-one]	0.227 µg/mL (≈ 0.58 µM)	>100 µg/mL	> 64 µg/mL	223 to 225 °C
CC(=O)NC[C@@H]1OC(=O)N2c3cc(F)c(N4CC[S+]([O-])CC4)cc3OC[C@@H]12 [Compound 23, N-(((3S,3aS)-8-Fluoro-1-oxo-7-(1-oxidothiomorpholino)-3a,4-dihydro-1H,3H-benzo[b]oxazolo[3,4-d][1,4]oxazin-3-yl)methyl)acetamide]	0.442 µg/mL (≈ 1.11 µM)	60.57 µg/mL (≈ 152 µM)	> 64 µg/mL	214 to 216 °C
O=C(NC[C@H]1OC(=O)N2c3cc(F)c(N4CCSCC4)cc3OC[C@H]12)C1CCC1 [Compound 29, N-(((3R,3aR)-8-Fluoro-1-oxo-7-thiomorpholino-3a,4-dihydro-1H,3H-benzo[b]oxazolo[3,4-d][1,4]oxazin-3-yl)methyl)cyclobutane carboxamide]	0.219 µg/mL (≈ 0.52 µM)	>100 µg/mL	> 64 µg/mL	183 to 185 °C
O=C1O[C@H](CNc2ccon2)[C@H]2COc3cc(N4CCSCC4)c(F)cc3N12 [Compound 31, (3R,3aR)-8-Fluoro-3-((isoxazol-3-ylamino)methyl)-7-thiomorpholino-3a,4-dihydro-1H, 3H-benzo[b]oxazolo[3,4-d][1,4]oxazin-1-one]	0.123 µg/mL (≈ 0.303 µM)	>100 µg/mL	> 64 µg/mL	149 to 150 °C
